From ChEMBL document CHEMBL3817848, “Synthesis and in vitro α-chymotrypsin inhibitory activity of 6-chlorobenzimidazole derivatives” (Bioorg Med Chem, 2016)

Key:
[1] = Inhibition of alpha-chymotrypsin (unknown origin) using N-succinyl-L-phenylalanine-p-nitroanilide as substrate preincubated for 25 mins by microplate reader method; parameters: species or system Homo sapiens
Homo sapiens = organism: Homo sapiens; test: Inhibition of alpha-chymotrypsin (unknown origin) using N-succinyl-L-phenylalanine-p-nitroanilide as substrate at 500 uM preincubated for 25 mins by microplate reader method
[2] = Competitive inhibition of alpha-chymotrypsin (unknown origin) using N-succinyl-L-phenylalanine-p-nitroanilide as substrate; parameters: species or system Homo sapiens
[3] = Mixed inhibition of alpha-chymotrypsin (unknown origin) using n-succinyl-l-phenylalanine-p-nitroanilide as substrate; parameters: species or system Homo sapiens

| IC50 [1] [µM] | inhibition (Homo sapiens) [%] | Ki [2] [µM] | Ki [3] [µM] | SMILES |
| --- | --- | --- | --- | --- |
| > 500 | < 50 | – | – | Clc1ccc2[nH]c(-c3ccccc3)nc2c1 |
| > 500 | < 50 | – | – | N#Cc1ccc(-c2nc3cc(Cl)ccc3[nH]2)cc1 |
| 93.1 | > 50 | 71.4 | – | Cn1c(-c2ccco2)nc2ccc(Cl)cc21 |
| 15.9 | > 50 | 17.3 | – | CCOc1cc(-c2nc3ccc(Cl)cc3[nH]2)ccc1O |
| > 500 | < 50 | – | – | O=[N+]([O-])c1ccc(Cl)c(-c2nc3ccc(Cl)cc3[nH]2)c1 |
| 118 | > 50 | 79.3 | – | Fc1ccccc1-c1nc2ccc(Cl)cc2[nH]1 |
| 471 | < 50 | – | – | O=[N+]([O-])c1ccc(-c2nc3cc(Cl)ccc3[nH]2)cc1 |
| 428 | < 50 | – | – | CC(C)c1ccc(-c2nc3ccc(Cl)cc3[nH]2)cc1 |
| 35.6 | > 50 | 39.6 | – | Clc1ccc(-c2nc3ccc(Cl)cc3[nH]2)c(Cl)c1 |
| 14.8 | > 50 | 16.4 | – | COc1ccc(-c2nc3ccc(Cl)cc3[nH]2)cc1OC |
| 38.1 | > 50 | – | 36.5 | COc1cccc(-c2nc3ccc(Cl)cc3[nH]2)c1 |
| > 500 | < 50 | – | – | Oc1ccccc1-c1nc2cc(Cl)ccc2[nH]1 |
| 34.6 | > 50 | 33.3 | – | Oc1ccc(-c2nc3ccc(Cl)cc3[nH]2)c(O)c1 |
| 24.2 | > 50 | 17.5 | – | CN(C)c1ccc(-c2nc3ccc(Cl)cc3[nH]2)cc1 |
| 458 | < 50 | – | – | Clc1ccc2nc(-c3cccc(Br)c3)[nH]c2c1 |
| 48.9 | > 50 | 50.1 | – | Clc1ccc2nc(-c3cccnc3)[nH]c2c1 |
| 96.4 | > 50 | 99.8 | – | Clc1ccc2nc(-c3c(Cl)cccc3Cl)[nH]c2c1 |
| > 500 | < 50 | – | – | Cc1ccc(-c2nc3cc(Cl)ccc3[nH]2)cc1 |
| 20.9 | > 50 | 25.3 | – | Clc1ccc2nc(-c3cccc4ccccc34)[nH]c2c1 |
| 486 | < 50 | – | – | Clc1ccc2[nH]c(/C=C/c3ccccc3)nc2c1 |
